Marks after values point to notes of the source that are not given here.

The values that follow come from patent US20030091589A1, “Methods and compositions for control of coccidiosis” (priority 2001, published 2003).

Test [1] has as its system Eimeria spp. The test is described as follows: 42-day trials, growth of broiler chicks reared on Eimeria-infected recycled litter (Example 6). Type of test: in vivo, Cornish Rock male broiler chicks. As to conditions: AVATEC 90.7 g/ton, Bacitracin Zn 50 g/t, BIO-MOS 0.5 kg/tonne. The method, then:
Three 42-day trials were conducted to evaluate the effects of AVATEC (lasalocid, Alpharma, Fort Lee, N.J.), an anticoccidial ionophore (90.7 g/ton); Bacitracin Zn, (50 g/t), and BIO-MOS® (0.5 kg/tonne) on the growth of broiler chicks reared on recycled litter. Sixty (day-old) Cornish Rock male broiler chicks were put into each of four treatment groups (replicated three times) consisting of the following: 1) Control (untreated birds); 2) BIO-MOS® treated, 3) AVATEC treated, and 4) Bacitracin ZN treated. Pine wood shavings on which broilers infected with E. tenella, E. maxima, and E. acervulina had been grown were used as recycled litter for the trials. Pens containing this recycled litter were assigned to the four treatment groups prior to commencement of the trial, and day old chicks were introduced for each of the three subsequent trials with the same recycled litter.
Diets consisted of mainly corn-soy supplemented with necessary vitamins and minerals to satisfy 1994 National Research Council requirements. Weekly body weights were measured. […] Mean body weight averages of chicks in all treatments decreased with each cycle of litter re-use due to infection.

In another test the test system is E. maxima. The test is described as follows: 28-day trial, broiler chicks challenged with E. maxima (Example 2). Type of test: in vivo, Cornish Rock male broiler chicks. The protocol: A 28-day trial with 360 Cornish Rock male broiler chicks was conducted to investigate the effects of two medicated feeds on the suppression of E. maxima infection. Thirty day-old chicks per treatment group were housed in battery cages and fed a standard soya corn diet containing Monensin ([…]) or a commercially available yeast cell-derived composition containing yeast cell wall material and mannanoligosaccharide (BIO-MOS®) (1 kg/tonne). The four experimental groups included: 1) negative control (unmedicated, unchallenged); 2) positive control (unmedicated, challenged); 3) Monensin treated, challenged, and 4) BIO-MOS® treated, challenged. Birds were assigned to treatments and replicate pens as described in Example 1. At 14 days of age, chicks were infected orally by gavage with E. maxima (50,000 oocysts/bird). The response variables measured included weekly body weight gain and cecal lesion scores. Such measurements were subjected to analysis of variance as described in Example 1.

A further test relates to E. tenella. The test is described as follows: 28-day trial, broiler chicks challenged with E. tenella (Example 1). The class given is in vivo, Cornish Rock male broiler chicks. The protocol: A 28-day trial with 360 Cornish Rock male broiler chicks was conducted to investigate the effects of two medicated feeds on the suppression of detrimental effects of E. tenella (See Tables I & II).
Day-old chicks were fed standard corn soya diets containing Monensin ([…]) or a yeast cell wall/mannanoligosaccharide-containing composition (BIO-MOS®, Alltech, Inc., Nicholasville, Ky.) (1 kg/tonne). The experimental groups included: 1) negative control (unmedicated, unchallenged); 2) positive control (untreated, challenged); 3) Monensin-treated, challenged and 4) BIO-MOS®-treated, challenged. Birds were randomly assigned to three replicate pens in each treatment group. At 14 days of age, chicks were infected orally by gavage with E. tenella (50,000 oocysts/bird). The response variables measured included weekly body weight gain and cecal lesion scores as described (Johnson and Reid. 1970 “Anticoccidial Drugs: Lesion Scoring Technique in Battery and Floor Pen Experiments with Chickens.” Exp. Parasitol. 28:30-36). Treatment differences were evaluated by using the LSD procedure with the General Linear Models Procedure (SAS Institute, 1985, Cary, N.C.) using pens as the experimental units. The model statement included only treatment effects. When significance differences (P<0.05) were observed, the least significant differences (LSD) procedures was applied to test for the differences among treatments.

Test [2] has as its system Eimeria spp. The test can be described thus: 20-day battery trial, chicks challenged with sporulated Eimeria species (Example 4). Type of test: in vivo, broiler chicks (Cobb). The protocol: A 20-day battery trial was conducted to determine the anticoccidial activity of a yeast cell composition in broiler chicks (Cobb) challenged with sporulated Eimeria species. One hundred sixty chicks (day old) were housed in battery cages (10 chicks per cage, 459 sq. cm/bird). There were four replicated cages per treatment. A standard corn soya diet was provided with water ad libitum. Treatment groups were the following: (1) Negative control (non-medicated, unchallenged); 2) positive control (non-medicated, challenged; 3) BIO-MOS®, 1 kg/tonne (challenged); and 4) Salinomycin, 60 g/tonne (challenged).
The challenge inoculum was provided at 14 days of age and contained 50,000 E. acervulina, 5,000 E. maxima or 40,000 E. tenella oocysts, respectively, administered by oral gavage. Body weights and feed consumption were measured at 9, 14 and 20 days of age. Six days post-infection all birds were sacrificed and lesion scored using the method of Johnson and Reid (1970) supra. Lesion scores were evaluated in the upper (E. acervulina), middle (E. maxima), and cecal (E. tenella) regions of the intestine.

Test [3] relates to Eimeria spp. The test is described as follows: 20-day battery trial, chicks challenged with sporulated Eimeria species (Example 5). Type of test: in vivo, broiler chicks (Cobb). The protocol:
A 20-day battery trial was conducted to determine the anticoccidial activity of a BIO-MOS® in broiler chicks (Cobb) challenged with sporulated Eimeria species. One hundred sixty chicks (day old) were housed in battery cages (10 chicks per cage, 459 sq.cm/bird). There were 4 replicated cages per treatment. A standard soya corn diet was provided with water ad libitum. Treatment groups were the following: 1) Negative control (non-medicated, unchallenged); 2) Positive control (non-medicated and challenged; 3) BIO-MOS®, 1 kg/tonne (challenged); and 4) Salinomycin, 60 g/tonne (challenged).
The challenge inoculum was provided at 14 days of age and contained respectively, 50,000 E. acervulina, 5,000 E. maxima or 40,000 E. tenella oocysts administered by oral gavage. Body weights and feed consumption were measured at 0, 14 and 20 days of age.
Six days post infection all birds were sacrificed and lesion scored, using the method of Johnson and Reid supra. Lesion scores were evaluated in the upper (E. acervulina), middle (E. maxima), and cecal (E. tenella) regions of the intestine.

For a further test, the system named is E. acervulina. The test is described as follows: 28-day trial, broiler chicks challenged with E. acervulina (Example 3). Type of test: in vivo, Cornish Rock male broiler chicks. The protocol: A 28-day trial with 360 Cornish Rock male broiler chicks was conducted to investigate the effects of two medicated feeds on the suppression of detrimental effects of E. acervulina.
Day-old chicks were fed a standard corn soya diet containing Salinomycin (6 mg/kg) or BIO-MOS® (1 kg/tonne). The four experimental groups were: 1) negative control, unmedicated, unchallenged; 2) Salinomycin-treated, challenged, 3) BIO-MOS®-treated, challenged and 4)BIO-MOS® treated, unchallenged. Birds were randomly assigned to three replicate pens in each treatment group. At 14 days of age, chicks were infected orally by gavage with E. acervulina (500,000 oocysts/bird). The response variables measured included weekly body weight gain and cecal lesion scores. Data were subjected to ANOVA using the General Linear Model procedure (SAS Institute, Cary, N.C.) as described in Example 1.

[4] abbreviates: Eimeria spp. infected, BIO-MOS 1 kg/t, Salinomycin 60 g/t.
Setting [5] is: post-challenge period, BIO-MOS 1 kg/t, Salinomycin 60 g/t.
[6] abbreviates: post-challenge weight gain versus unchallenged control.
Setting [7] is: pre-challenge period, BIO-MOS 1 kg/t, Salinomycin 60 g/t.
[8] abbreviates: whole trial, BIO-MOS 1 kg/t, Salinomycin 60 g/t.

As to `CC[C@@H](C(=O)[C@@H](C)[C@@H](O)[C@H](C)CCc1ccc(C)c(O)c1C(=O)O)[C@H]1O[C@](CC)([C@H]2CC[C@](O)(CC)[C@H](C)O2)C[C@@H]1C` [AVATEC, lasalocid], in the test on Eimeria spp. [1] (42-day trial 1 on recycled litter), the “Body Weight, Trial 1” value was 2271^a Grams. The “Body Weight, Trial 2” value in the test on Eimeria spp. [1] (42-day trial 2 on same recycled litter) is given as 1863^b Grams. Moreover, the “Body Weight, Trial 3” value with Eimeria spp. [1] (42-day trial 3 on same recycled litter) is given as 1760^ab Grams.

Take `CC[C@@]1([C@@H]2O[C@@H]([C@H]3O[C@@](O)(CO)[C@H](C)C[C@@H]3C)C[C@@H]2C)CC[C@H]([C@]2(C)CC[C@]3(C[C@H](O)[C@@H](C)[C@@H]([C@@H](C)[C@@H](OC)[C@H](C)C(=O)O)O3)O2)O1` [Monensin]: the “Average Weight Gain, Mean” value in the test with E. maxima (E. maxima infected, 2-4 weeks after challenge, mean of 3 replications) was 536; in the test with E. tenella (E. tenella infected, weeks 2-4 after challenge, mean of 3 replications), 544 Grams. Further, the “Average Weight Gain, Replication 1” value in the test on E. maxima (E. maxima infected, 2-4 weeks after challenge, replicate pen 1) is on record as 598; with E. tenella (E. tenella infected, weeks 2-4 after challenge, replicate pen 1), 498 Grams. The “Average Weight Gain, Replication 2” value was determined as 412 in the test on E. maxima (E. maxima infected, 2-4 weeks after challenge, replicate pen 2) and 611 Grams in the test with E. tenella (E. tenella infected, weeks 2-4 after challenge, replicate pen 2). The “Average Weight Gain, Replication 3” value in the test with E. maxima (E. maxima infected, 2-4 weeks after challenge, replicate pen 3) turned out to be 599; in the test on E. tenella (E. tenella infected, weeks 2-4 after challenge, replicate pen 3) it was 523 Grams. Further, the “reduction of average cecal lesion scores” value in the test with E. maxima (E. maxima infection, versus positive control) stood at 21%. Also, the “Cecal Lesion Scores” value is given as 0.93^b in the test on E. maxima (chicks challenged with E. maxima 50,000 oocysts/bird at 14 days, Monensin 60 g/kg or BIO-MOS 1 kg/tonne in feed) and 1.50^b with E. tenella (chicks infected with E. tenella 50,000 oocysts/bird at 14 days, Monensin 60 g/kg or BIO-MOS 1 kg/tonne in feed). For the same molecule, in the test on E. tenella (standard Monensin treatment), the “improvements in weight gain relative to E. tenella-challenged control” value was “not seen”. Besides, in the test on E. tenella (versus untreated challenged control), the “severity of the E. tenella infections as measured by cecal lesion scores” value is “significantly (P<0.05) reduced”.

As to `CC[C@@H](C(=O)[C@@H](C)[C@@H](O)[C@H](C)[C@@H]1O[C@@H]([C@@H](CC)C(=O)O)CC[C@@H]1C)[C@H]1O[C@]2(C=C[C@@H](O)[C@]3(CC[C@@](C)([C@H]4CC[C@](O)(CC)[C@H](C)O4)O3)O2)[C@H](C)C[C@@H]1C` [Salinomycin], the “lesion scores compared to control groups in the upper and mid intestine regions” value with Eimeria spp. [2] (Eimeria spp. challenge) is “significantly reduced (P<0.05)”. The results for the “Feed Conv.” value in the test with Eimeria spp. [2] (setting [4]) and in the test on Eimeria spp. [3] (setting [4]) were 1.511^b and 1.675^a, respectively. For the same molecule, the “Average Cecal Lesion Scores, Ceca” value in the test on Eimeria spp. [2] (cecal region (E. tenella), six days post-infection, BioMos 1 kg/t, Salinomycin 60 g/t) is on record as 0.6^c; with Eimeria spp. [3] (cecal region (E. tenella), six days post infection, BioMos 1 kg/t, Salinomycin 60 g/t), 1.2^b. The “Average Cecal Lesion Scores, Mid” value is on record as 0.8^c in the test on Eimeria spp. [2] (middle intestine (E. maxima), six days post-infection, BioMos 1 kg/t, Salinomycin 60 g/t) and 0.7^b in the test on Eimeria spp. [3] (middle intestine (E. maxima), six days post infection, BioMos 1 kg/t, Salinomycin 60 g/t). In addition, the “Avg. Live Wt. Gain Day 14-20” value in the test on Eimeria spp. [2] (setting [5]) is on record as 0.314^a kg; in the test on Eimeria spp. [3] (setting [5]), 0.243^ab kg. Moreover, the entries for the “% Wt. Gain Reduction” value in the test with Eimeria spp. [2] (setting [6]) and in the test with Eimeria spp. [3] (setting [6]) were −0.41% and 8.90%, respectively. The results for the “Avg. Live Wt. Gain Day 0-14” value in the test on Eimeria spp. [2] (setting [7]) and in the test with Eimeria spp. [3] (setting [7]) were 0.634^a kg and 0.262^a kg, respectively. Also, the “Average Cecal Lesion Scores, Total” value was 2.7^c in the test on Eimeria spp. [2] (total of regions, six days post-infection, BioMos 1 kg/t, Salinomycin 60 g/t) and 2.7^ab in the test with Eimeria spp. [3] (total of regions, six days post infection, BioMos 1 kg/t, Salinomycin 60 g/t). In addition, the “Average Cecal Lesion Scores, Upper” value with Eimeria spp. [2] (upper intestine (E. acervulina), six days post-infection, BioMos 1 kg/t, Salinomycin 60 g/t) is given as 1.3^c; in the test on Eimeria spp. [3] (upper intestine (E. acervulina), six days post infection, BioMos 1 kg/t, Salinomycin 60 g/t), 0.8^b. The “Avg. Live Wt. Gain Day 0-20” value with Eimeria spp. [2] (setting [8]) is recorded as 0.634^a kg; with Eimeria spp. [3] (setting [8]) it was 0.504^ab kg. In the test with Eimeria spp. [3] (Eimeria spp. challenge), the “lesion scores versus the positive control in all regions of the gut” value is listed as “significantly lower lesion scores”. In addition, the “Body Weight Gain Post-Infection Week 3” value with E. acervulina (Challenge: Yes (E. acervulina)) was 350^a grams. Also, in the test with E. acervulina (Challenge: Yes (E. acervulina)), the “Body Weight Gain Post-Infection Week 4” value was 607^ab grams. Further, in the test on E. acervulina (Challenge: Yes (E. acervulina)), the “Body Weight Pre-Infection Week 2” value is recorded as 236^a grams. The “reduction of severity of cecal lesions (cecal lesion scores)” value in the test with E. acervulina (E. acervulina challenge, versus positive control) worked out at 57%. Further, in the test on E. acervulina (chicks challenged with E. acervulina 500,000 oocysts/bird at 14 days, Salinomycin 6 mg/kg or BIO-MOS 1 kg/tonne in feed), the “Cecal Lesion Scores” value was 0.92^bc.
